For data set [1], the system named is HBV. The data set is described as follows: Anti-HBV activity assay: HBV-DNA replication in HepG2.2.15 cells, fluorescent quantitation PCR of culture supernatant. It is filed as cell-based, Hepatitis B Virus. The following applies: for IC50: HBV-DNA in supernatant on the eighth day, read-out: IC50 (concentration at which 50% of the replication of HBV was inhibited). The procedure:
(§1) The anti-HBV activity assay of a specimen compound was performed in HepG2.2.15 cells stably transformed with the whole genome of HBV, including the determination of the cytotoxicity of the specimen compound (CC50) and the effect of the specimen compound on the replication level of HBV-DNA (IC50).
(§2) The Human hepatoma carcinoma cell HepG2.2.15 cell line stably transformed with the whole genome of HBV can stably secrete hepatitis B virosomes (containing DNA) in the supernatant of culture during culture. Both the antiviral activity and the cytotoxicity of the specimen drugs may be determined by detecting the amount of virus DNA secreted into the supernatant of culture by the cells under the intervention of an antiviral drug, in reference to the amount in control group that is the absence of the antiviral drug. A real-time fluorescent quantitation PCR assay was adopted to determine the concentration of a specimen drug at which 50% of the replication of HBV-DNA was inhibited (IC50), and a MTT assay was adopted to determine the concentration of a specimen drug at which 50% cytotoxicity occurs (CC50).
The specimen drug was prepared into a solution having a concentration (400 μM) desired for the experiment before use. Six diluted concentrations were tested for each specimen drug. The clinical anti-hepatitis B virus drug Lamivudine was used as the positive control in experiment so as to determine whether the reaction is normal or not in each experiment.
(§3) HepG2.2.15 cells were inoculated on a 96-well plate at 5×10^5 cells/ml. On the second day, the specimen drug was added. After the culture medium and the specimen drug having the same concentration as above were replaced periodically, on the eighth day, the supernatant of culture was collected to be tested. To the cells on the 96-well plate, MTT (5 mg/ml) is added. 4 hours later, MTT lysis solution was added (100 μl/well). The next day, OD570 was read on a microplate reader. The cytotoxicity of the specimen drug on HepG2.2.15 cells, the influence of specimen drug on cell growth, and the concentration of specimen drug at which 50% of cells were killed (CC50) were calculated in accordance with the OD value.
A proper amount of the supernatant of culture was added into an isovolumic virus extract and mixed uniformly. The resulted mixture was boiled, and then centrifuged for 5 minutes at 10,000 rpm at room temperature. A proper amount of the obtained supernatant was used to perform PCR amplification, and meanwhile four standard samples of HBV-DNA were set up to make a standard curve. The inhibition of each specimen drug at various concentrations against the replication of HBV-DNA was calculated according to the detected replication value of the viral DNA, and then the half inhibition of the specimen drug was calculated to obtain its IC50.

Data set [2] relates to HepG2.2.15 cells. In words: Cytotoxicity on HepG2.2.15 cells (MTT assay). The class given is cell-based, Human. The following applies: read-out: CC50 (concentration at which 50% of cells was killed). On the procedure:
as §1, §2, §3
For orientation: Tetrazolium assays rely on reduction of a dye to a coloured formazan, in cell work by metabolically active cells.

Data set [3] can be described thus: In vivo pharmacokinetic studies in rats (intragastric and intravenous). Set-up: species or system SD rats. The following applies: rat. On the procedure:
(§4) Intragastric Administration Three healthy male SD rats having body weights of 200 g to 250 g were administered with a specimen drug with a dosage of 20 mg/kg and a volume of 10 ml/kg. The rats were fasted for 12 hours before administration and had the freedom to drink water. The venous blood with a volume of 0.3 ml was obtained from the retrobulbar venous plexus of the rats at 0.25 h, 0.5 h, 1.0 h, 2.0 h, 3.0 h, 4.0 h, 5.0 h, 7.0 h, 9.0 h and 24 h after the administration, put in a heparinized tube, and centrifuged for 10 minutes at 3500 rpm to separate the plasma, which was stored at −20° C. to be tested.
as §4, with “Intravenous Injection: Three healthy” for “Intragastric Administration Three healthy”, “dosage of 10 mg/kg and” for “dosage of 20 mg/kg and”, “volume of 5.0 ml/kg. The” for “volume of 10 ml/kg. The”, “rats at 5 min, 15 min, 0.5 h,” for “rats at 0.25 h, 0.5 h,”, “heparinized tube, centrifuged for” for “heparinized tube, and centrifuged for”

A short description of data set [4]: Cytotoxicity on HepG2.2.15 cells (MTT assay). The following applies: human, read-out: CC50 (concentration at which 50% of cells was killed). It is filed as cell-based, Human. On the procedure:
as §1, §2, §3

In data set [5] the test system is HCV (J399E). In words: microbe, parasite or virus in culture. The class given is cell-based, Hepatitis C Virus. On the procedure:
The variation of the green fluorescence intensity was recorded on a microplate reader and cytotoxicity was measured at the same time, so as to evaluate the influence of the compound on the replication activity of HCV.
Compounds to be tested were dissolved in DMSO to prepare a stock solution before the test. Upon using, the stock solution was diluted to a desired concentration with DMEM (Dulbecco's Modified Eagle Media, purchased from GibcoBRL company (Life Technologies, Grand Island, N.Y., USA)) containing 10% FBS (fetal bovine serum, purchased from Hyclone company (Logan, Utah, USA)).
Positive control: ribavirin (purchased from Sigma/Aldrich). It was dissolved in DMSO to prepare a stock solution and stored at −20° C. before use, and diluted to a desired concentration upon using.
(§5) Huh7.5.1 cells (10% FBS, DMEM) at the concentration of 10^5 cells/ml were inoculated on a 96-well plate (Costar 3904) with 100 μl per well. 24 hours later, the supernatant of culture was sucked out, and 50 μl of virus supernatant with MOI=0.1 was added. 8 hours later, 50 μl of the testing drug was added and 100 μl of culture medium was supplemented. After incubation for 72 hours, the supernatant was sucked out, and read on a fluorescent microplate reader (Ex=488 nm, Em=516 nm). Then each well was added with 20 μl of MTT (5 mg/ml) and additional 50 μl of culture medium. 4 hours later, 100 μl of MTT lysis solution was added. 6 hours later, reading was performed at a wavelength of 570 nm.

The nature of data set [6]: in vitro. The class given is cell-based. The following applies: human. On the procedure: The anti-HCV activity assay was performed by using Huh7.5.1 cells (donated by WUHAN INSTITUTE of VIROLOGY, CHINESE ACADEMY OF SCIENCES) infected by HCV (J399E) inserted with enhanced green fluorescent protein (EGFP). The variation of the green fluorescence intensity was recorded on a microplate reader and cytotoxicity was measured at the same time, so as to evaluate the influence of the compound on the replication activity of HCV.
as §5

SMILES strings stand for the structures. Read-outs that look alike come from different tables or passages of the source.

Take `CC(C)Cc1sc(-c2nccs2)nc1C(=O)NCc1ccc(F)cc1` [Compound W28F, N-parafluorobenzyl-5-isobutyl-2′,2-bithiazole-4-formamide, reference compound]: the IC50 in data set [1] came out at 2.6 µM. The CC50 in data set [2] was > 33.3 µM. This molecule yielded an average oral bioavailability in data set [3] (in vivo, 10 mg/kg) of 2.80%.
One may read the bioavailability as the share of a dose that reaches the circulation, judged against a reference dose that is usually intravenous. For the molecule `CC(C)(O)Cc1sc(-c2nccs2)nc1C(=O)NCc1ccc(F)cc1` [Compound 391-2, N-(p-fluorobenzyl)-5-(2-hydroxy-2-methylpropyl)-2′,2-bisthiazole-4-formamide], the IC50 turned out to be 5.4 µM in data set [1] (Hepatitis B virus) and 21.3 µM in data set [5] (Hepatitis C virus, Huh-7.5.1, 72 h, read-out: IC50 (concentration at which 50% of the replication of HCV was inhibited)). For the same molecule, the “SI (bioactivity selective index)” value is on record as >18.5 in data set [1] (anti-HBV) and 6.3 in data set [5] (anti-HCV, Huh7.5.1 cells). Also, the CC50 at 6 days in data set [4] was > 100 µM. The same molecule yielded a CC50 at 72 h in data set [6] of 134 µM. For the same molecule, the bioavailability in data set [3] (plasma, po, male SD rats, 20 mg/kg intragastric, dosage normalized, calculated according to AUC0-t) was 76.5%.

The record behind these values is patent US8426606B2, “2′,2-bisthiazole non-nucleoside compounds, preparation methods, pharmaceutical compositions and uses as hepatitis virus inhibitors thereof” (Shanghai Institute of Materia Medica, Chinese Academy of …, priority 2010, dated 2013).
